Laboratory results reported in PubChem BioAssay (NCI).
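Values below derive from 48-hour exposures of cells grown in 96-well plates, with endpoints linearly interpolated between the two concentrations bracketing the appropriate inhibition level. At the GI50, growth is halved. TGI denotes the concentration required for complete inhibition of growth.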

Experiments:
Experiment in all cases: NCI tumour cell line growth inhibition, 48 h
HOP-62 NSCLC = tested on: HOP-62 NSCLC
HCT-116 colon = tested on: HCT-116 colon
MOLT-4 leukemia = tested on: MOLT-4 leukemia
PC-3 prostate = tested on: PC-3 prostate
NCI-H226 lung = tested on: NCI-H226 lung
OVCAR-5 ovarian = tested on: OVCAR-5 ovarian
U251 CNS = tested on: U251 CNS
M14 melanoma = tested on: M14 melanoma
MDA-MB-435 = tested on: MDA-MB-435
HCC-2998 colon = tested on: HCC-2998 colon
A549 NSCLC = tested on: A549 NSCLC
SK-OV-3 ovarian = tested on: SK-OV-3 ovarian
MALME-3M melanoma = tested on: MALME-3M melanoma
CCRF-CEM leukemia = tested on: CCRF-CEM leukemia
HS 578T breast = tested on: HS 578T breast
T-47D breast = tested on: T-47D breast
MDA-MB-468 breast = tested on: MDA-MB-468 breast
SF-268 CNS = tested on: SF-268 CNS
786-0 renal = tested on: 786-0 renal
NCI-H522 lung = tested on: NCI-H522 lung
HT29 colon = tested on: HT29 colon
HOP-92 NSCLC = tested on: HOP-92 NSCLC
RPMI-8226 leukemia = tested on: RPMI-8226 leukemia
MCF7 breast = tested on: MCF7 breast
OVCAR-4 ovarian = tested on: OVCAR-4 ovarian
CAKI-1 renal = tested on: CAKI-1 renal
BT-549 breast = tested on: BT-549 breast
HL-60(TB) leukemia = tested on: HL-60(TB) leukemia
UACC-257 melanoma = tested on: UACC-257 melanoma
KM12 colon = tested on: KM12 colon
OVCAR-8 ovarian = tested on: OVCAR-8 ovarian
SNB-19 CNS = tested on: SNB-19 CNS
A498 renal = tested on: A498 renal
IGROV1 ovarian = tested on: IGROV1 ovarian
SK-MEL-2 melanoma = tested on: SK-MEL-2 melanoma
TK-10 renal = tested on: TK-10 renal
SK-MEL-28 melanoma = tested on: SK-MEL-28 melanoma
UO-31 renal = tested on: UO-31 renal
SK-MEL-5 melanoma = tested on: SK-MEL-5 melanoma
EKVX NSCLC = tested on: EKVX NSCLC
NCI/ADR-RES ovarian = tested on: NCI/ADR-RES ovarian
SF-295 CNS = tested on: SF-295 CNS
HCT-15 colon = tested on: HCT-15 colon
K-562 leukemia = tested on: K-562 leukemia
OVCAR-3 ovarian = tested on: OVCAR-3 ovarian
SF-539 CNS = tested on: SF-539 CNS
RXF 393 renal = tested on: RXF 393 renal
ACHN renal = tested on: ACHN renal
LOX IMVI melanoma = tested on: LOX IMVI melanoma
SW-620 colon = tested on: SW-620 colon
COLO 205 colon = tested on: COLO 205 colon
SN12C renal = tested on: SN12C renal
NCI-H460 lung = tested on: NCI-H460 lung
DU-145 prostate = tested on: DU-145 prostate
MDA-MB-231 breast = tested on: MDA-MB-231 breast
UACC-62 melanoma = tested on: UACC-62 melanoma
NCI-H23 lung = tested on: NCI-H23 lung
SR leukemia = tested on: SR leukemia

`COc1ccc(C(=O)/C=C/c2ccc3ccccc3c2)cc1S(N)(=O)=O` showed a GI50 (HOP-62 NSCLC) of 1.99 µM, a TGI (HOP-62 NSCLC) of 5.49 µM and a GI50 (HCT-116 colon) of 1.9 µM. It also gave a TGI (HCT-116 colon) of 4.82 µM, a GI50 (MOLT-4 leukemia) of 2.09 µM and a TGI (MOLT-4 leukemia) of 4.95 µM. The GI50 (PC-3 prostate) was 1.78 µM, the TGI (PC-3 prostate) was 4.05 µM and the GI50 (NCI-H226 lung) was 2.36 µM. For the same compound, the TGI (NCI-H226 lung) was 8.37 µM, the GI50 (OVCAR-5 ovarian) was 1.75 µM and the TGI (OVCAR-5 ovarian) was 4.15 µM. For the same compound, the GI50 (U251 CNS) was 1.19 µM, the TGI (U251 CNS) was 2.46 µM and the GI50 (M14 melanoma) was 2.26 µM. For the same compound, the TGI (M14 melanoma) was 5.98 µM, the GI50 (MDA-MB-435) was 2.4 µM and the TGI (MDA-MB-435) was 6.72 µM. It also gave a GI50 (HCC-2998 colon) of 1.56 µM, a TGI (HCC-2998 colon) of 2.93 µM and a GI50 (A549 NSCLC) of 1.99 µM. For the same compound, the TGI (A549 NSCLC) was 7.72 µM, the GI50 (SK-OV-3 ovarian) was 4.91 µM and the TGI (SK-OV-3 ovarian) was 18.6 µM. For the same compound, the GI50 (MALME-3M melanoma) was 3.2 µM, the TGI (MALME-3M melanoma) was 14.9 µM and the GI50 (CCRF-CEM leukemia) was 2.63 µM. For the same compound, the TGI (CCRF-CEM leukemia) was 6.4 µM, the GI50 (HS 578T breast) was 17.5 µM and the TGI (HS 578T breast) was 54.8 µM. The GI50 (T-47D breast) was 1.76 µM, the TGI (T-47D breast) was 6.77 µM and the GI50 (MDA-MB-468 breast) was 1.43 µM. It also gave a TGI (MDA-MB-468 breast) of 2.9 µM, a GI50 (SF-268 CNS) of 3.2 µM and a TGI (SF-268 CNS) of 13.3 µM. The GI50 (786-0 renal) was 1.69 µM, the TGI (786-0 renal) was 3.62 µM and the GI50 (NCI-H522 lung) was 1.62 µM. For the same compound, the TGI (NCI-H522 lung) was 3.32 µM, the GI50 (HT29 colon) was 1.67 µM and the TGI (HT29 colon) was 3.53 µM. The GI50 (HOP-92 NSCLC) was 1.9 µM, the TGI (HOP-92 NSCLC) was 9.2 µM and the GI50 (RPMI-8226 leukemia) was 1.63 µM. It also gave a TGI (RPMI-8226 leukemia) of 4.62 µM, a GI50 (MCF7 breast) of 1.54 µM and a TGI (MCF7 breast) of 4.72 µM. It also gave a GI50 (OVCAR-4 ovarian) of 2.96 µM, a TGI (OVCAR-4 ovarian) of 10.9 µM and a GI50 (CAKI-1 renal) of 2.12 µM. It also gave a TGI (CAKI-1 renal) of 6.17 µM, a GI50 (BT-549 breast) of 1.53 µM and a TGI (BT-549 breast) of 3.27 µM. The GI50 (HL-60(TB) leukemia) was 1.61 µM, the TGI (HL-60(TB) leukemia) was 4.11 µM and the GI50 (UACC-257 melanoma) was 3.79 µM. For the same compound, the TGI (UACC-257 melanoma) was 14.5 µM, the GI50 (KM12 colon) was 1.56 µM and the TGI (KM12 colon) was 3.33 µM. The GI50 (OVCAR-8 ovarian) was 2.48 µM, the TGI (OVCAR-8 ovarian) was 7.04 µM and the GI50 (SNB-19 CNS) was 2.15 µM. The TGI (SNB-19 CNS) was 5.95 µM, the GI50 (A498 renal) was 14.6 µM and the TGI (A498 renal) was 28.2 µM. The GI50 (IGROV1 ovarian) was 2.07 µM, the TGI (IGROV1 ovarian) was 5.36 µM and the GI50 (SK-MEL-2 melanoma) was 12.2 µM. The TGI (SK-MEL-2 melanoma) was 25.4 µM, the GI50 (TK-10 renal) was 2.04 µM and the TGI (TK-10 renal) was 8.17 µM. For the same compound, the GI50 (SK-MEL-28 melanoma) was 2.13 µM, the TGI (SK-MEL-28 melanoma) was 5.14 µM and the GI50 (UO-31 renal) was 1.31 µM. For the same compound, the TGI (UO-31 renal) was 2.58 µM, the GI50 (SK-MEL-5 melanoma) was 3.48 µM and the TGI (SK-MEL-5 melanoma) was 13.6 µM. For the same compound, the GI50 (EKVX NSCLC) was 6.61 µM, the TGI (EKVX NSCLC) was 20.1 µM and the GI50 (NCI/ADR-RES ovarian) was 2.7 µM. The TGI (NCI/ADR-RES ovarian) was 8.21 µM, the GI50 (SF-295 CNS) was 1.88 µM and the TGI (SF-295 CNS) was 4.89 µM. The GI50 (HCT-15 colon) was 0.574 µM, the TGI (HCT-15 colon) was 2.08 µM and the GI50 (K-562 leukemia) was 1.58 µM. For the same compound, the TGI (K-562 leukemia) was 5.45 µM, the GI50 (OVCAR-3 ovarian) was 1.58 µM and the TGI (OVCAR-3 ovarian) was 3.38 µM. For the same compound, the GI50 (SF-539 CNS) was 1.69 µM, the TGI (SF-539 CNS) was 3.15 µM and the GI50 (RXF 393 renal) was 1.57 µM. The TGI (RXF 393 renal) was 3.34 µM, the GI50 (ACHN renal) was 1.78 µM and the TGI (ACHN renal) was 3.37 µM. The GI50 (LOX IMVI melanoma) was 1.32 µM, the TGI (LOX IMVI melanoma) was 2.59 µM and the GI50 (SW-620 colon) was 1.78 µM. It also gave a TGI (SW-620 colon) of 3.6 µM, a GI50 (COLO 205 colon) of 1.96 µM and a TGI (COLO 205 colon) of 4.06 µM. The GI50 (SN12C renal) was 1.56 µM, the TGI (SN12C renal) was 3.25 µM and the GI50 (NCI-H460 lung) was 2.96 µM. For the same compound, the TGI (NCI-H460 lung) was 8.84 µM, the GI50 (DU-145 prostate) was 3.31 µM and the TGI (DU-145 prostate) was 11.8 µM. It also gave a GI50 (MDA-MB-231 breast) of 2.5 µM, a TGI (MDA-MB-231 breast) of 7.51 µM and a GI50 (UACC-62 melanoma) of 1.6 µM. It also gave a TGI (UACC-62 melanoma) of 3.32 µM, a GI50 (NCI-H23 lung) of 1.73 µM and a TGI (NCI-H23 lung) of 3.3 µM. For the same compound, the GI50 (SR leukemia) was 0.867 µM and the TGI (SR leukemia) was 3.54 µM.
